Patent US20170209534A1, “Pseudhymenochirins As Agents For Treatment Of Cancer And Microbial Infections” (priority 2014, published 2017)
Read-outs that look alike come from different tables or passages of the source. No end group written: not given here.

What was measured:
[1] = test system: Stenotrophomonas maltophilia strains; settings: all Stenotrophomonas strains (B32/1, B32/4, B5/5, B6/2, U8708); cited from earlier work
[2] = test system: Acinetobacter strains; settings: strains NM8, NM35, NM75, NM109, NM124; Mechkarska et al., 2013; cited from earlier work
[3] = test system: C. albicans; test: MIC by micro-dilution, C. albicans; assay type: cell-based, Candida albicans; settings: reference strain; RPMI 1640, 48 h at 35° C.
Method: (§1) Minimum Inhibitory Concentration (MIC) of the peptides was determined in duplicate in three independent experiments by standard micro-dilution methods according to CLSI guidelines (Clinical Laboratory and Standards Institute 2008a, 2008b) using 96-well microtitre cell-culture plates.
(§2) For bacteria assays, serial dilutions of the peptides (0.6-80 μM) in Mueller-Hinton broth (50 μL) were mixed with an inoculum of 50 μL of 10^6 colony forming units (CFU)/mL) from a log-phase culture. The peptide and inoculum mixture was incubated for 18 h at 37° C. in a humidified atmosphere. For yeast, an inoculum of 5×10^4 CFU/mL from Candida albicans was incubated in the presence of serial dilutions of the peptides (0.6-80 μM) in RPMI 1640 medium for 48 h at 35° C. After incubation, the absorbance at 630 nm of each well was determined using a microtiter plate reader.
(§3) As a control, incubations were carried out in parallel with increasing concentrations of antibiotics wherever the isolate was originally susceptible (ampicillin for S. aureus and E. coli, ciprofloxacin for K. pneumoniae and P. aeruginosa, and amphotericin B for C. albicans).

[4] = test system: E. faecalis ATCC 29212; test: MIC by micro-dilution, E. faecalis; assay type: cell-based, Enterococcus faecalis; settings: reference strain
Method: as §1, §2

[5] = test system: human colorectal adenocarcinoma HT-29 cells; test: Viability assay (CellTiter-Glo, ATP), HT-29; assay type: cell-based; settings: 24 h exposure; mean ± S.E.M.; read-out: LC50 HT-29
Method: (§4) For cytotoxicity assay, the effect of the peptides on three different types of cancer cells were analysed, human non-small cell lung adenocarcinoma A549 cells, human breast adenocarcinoma MDA-MB-231 cells and human colorectal adenocarcinoma HT-29 cells. As control, HUVEC cell line was selected.
(§5) A549 cell line was maintained in RPMI 1640 medium containing 2 mM L-glutamine and supplemented with 10% FCS at 37° C. MDA-MB-231 and HT-29 cell lines were maintained in DMEM medium supplemented with 10% FCS at 37° C. The medium for cancer cells were further supplemented with antibiotics, penicillin 50 U/mL and streptomycin […]. HUVEC cells were maintained in EndoGRO MV-VEGF Complete Media Kit at 37° C.
(§6) The cells from each of the four cell lines were seeded individually in a 96-wells plate at a cell density of 5×10^3 cells/well. […]
(§7) The effect of the peptides on the cell viability was determined by the measurement of the concentration of ATP using CellTitre-Glo Luminescent Cell Viability assay. Luminescent signals were measured using a GLOMAX Luminometer system.
(§8) The LC50 value was calculated for both the peptides for individual cell lines by conducting non-linear regression analysis using commercially available software (SPPS version 17.0; SPS Inc, Chicago, Ill., USA). […]

[6] = in vitro; assay type: cell-based
Method: as §4, §5, §6, §7, §8

[7] = test system: A. baumannii
Method: (§9) Acinetobacter strains (NM8, NM35, NM75, NM109, and NM124) were isolated from different hospitals in the UAE. The Acinetobacter strains were characterised based on PCR analysis. […] Stenotrophomonas maltophilia strains (B32/1, B32/4, B5/5, B6/2, and U8708) were isolated from patients with bloodstream infection as discussed in Jumaa et al, 2006.
as §1, §2

[8] = test system: S. maltophilia
Method: as §9, §1, §2

[9] = test system: E. coli; test: MIC by micro-dilution, E. coli; assay type: cell-based; settings: reference strain
Method: as §1, §2, §3

[10] = test system: P. aeruginosa; test: MIC by micro-dilution, P. aeruginosa; assay type: cell-based; settings: reference strain
Method: as §1, §2, §3

[11] = test system: K. pneumoniae; test: MIC by micro-dilution, K. pneumoniae; assay type: cell-based; settings: reference strain
Method: as §1, §2, §3

[12] = test system: human breast adenocarcinoma MDA-MB-231 cells; test: Viability assay (CellTiter-Glo, ATP), MDA-MB-231; assay type: cell-based; settings: 24 h exposure; mean ± S.E.M.; read-out: LC50 MDA-231
Method: as §4, §5, §6, §7, §8

[13] = Haemolysis assay; assay type: cell-based, human; settings: human, pH 7.4
Method: (§10) For analysis of the haemolytic activity, RBCs (2×10^7 cells) taken from a healthy donor in DBPS, pH 7.4 (100 μL) were incubated with Ps-1Pb and Ps-2 Pa respectively in varying concentrations ranging from 1.6 μM to 100 μM of the peptides for a period of 1 hour at 37° C. After 1 hr, the samples were centrifuged at 12000 rpm for 15 seconds and the supernatant was collected. Absorbance of the supernatant was measured at 450 nm.
(§11) As control, the RBCs at a concentration of 2×10^7 were incubated in DBPS as a negative control to detect the absorbance in the absence of haemolysis. In addition, positive control was also maintained in which the RBC at a concentration of 2×10^7 was incubated with DPBS and 1% v/v Tween-20. The controls were centrifuged at 12000 rpm for 15 seconds and an absorbance reading was taken for the supernatant at 450 nm.
(§12) The LC50 value was taken as the mean concentration of peptide producing 50% haemolysis in three independent experiments.

[14] = test system: human red blood cells (RBC); test: Haemolysis assay; assay type: cell-based
Method: as §10, §11, §12

[15] = test system: S. aureus (ATCC 25923 and MRSA clinical isolates); assay type: cell-based, Staphylococcus aureus; settings: for Minimum inhibitory concentration S. aureus ATCC 25923 / Minimum inhibitory concentration S. aureus S908: ATCC 25923; for Minimum inhibitory concentration S. aureus 127/08 / Minimum inhibitory concentration S. aureus 145/08 / Minimum inhibitory concentration S. aureus 274/08 / Minimum inhibitory concentration S. aureus T4/6: MRSA clinical isolate
Source text: Six clinical sporadic isolates of MRSA were isolated from the wounds of patients admitted to Tawam Hospital (Al Ain, UAE). The strains were characterised by multi-locus sequence typing (MLST), Staphylococcal cassette chromosome (SCCmec) typing, accessory gene regulator (agr) typing, Staphylococcus protein A (spa) typing, and toxin gene carriage (Sonnevend et al., 2012). The isolated strains (127/08, 145/08, 274/08, V4180, S908, and T4/6) were resistant to all β-lactam antibiotics tested and to a range of non-β-lactam antibiotics.
as §1, §2, §3

[16] = test system: S. epidermidis; test: MIC by micro-dilution, S. epidermidis; assay type: cell-based; settings: for Minimum inhibitory concentration S. epidermidis RP62A: strain RP62A; for Minimum inhibitory concentration S. epidermidis RP62A/1: strain RP62A/1; for Minimum inhibitory concentration S. epidermidis T6/19: strain T6/19; for Minimum inhibitory concentration S. epidermidis T37/8: strain T37/8
Method: as §1, §2

[17] = test system: S. aureus (ATCC 25923); assay type: cell-based; settings: 4×MIC, within 180 min
Method: In order to determine the rate at which the peptides caused cell death, log-phase cultures of S. aureus (ATCC 25923) and E. coli (ATCC 25726) at a concentration of 0.5×10^6 CFU/mL in Mueller-Hinton broth (1 ml) were incubated in polypropylene tubes at 37° C. with Ps-1Pb at a concentration of 4×MIC. Control incubations in the absence of peptide were also carried out. Aliquots of 25 μl were removed at the time intervals 0, 0.5, 1, 2, 3, 4 and 24 hrs and the CFU of the serially diluted samples was determined on Mueller-Hinton agar plates. The time required for 99.9% cell death was determined.

[18] = 1 hour at 37° C., mean ± S.E.M., read-out: LC50 RBC (50% haemolysis)

Molecule | MIC against Stenotrophomonas strains [1] [µg/mL] | susceptibility of Acinetobacter strains (in words) [2] | Minimum inhibitory concentration C. albicans [3] [µM] | Minimum inhibitory concentration E. faecalis ATCC 29212 [4] [µM] | Minimum inhibitory concentration A. baumannii NM8 [7] [µM] | Minimum inhibitory concentration A. baumannii NM35 [7] [µM] | Minimum inhibitory concentration A. baumannii NM75 [7] [µM] | Minimum inhibitory concentration A. baumannii NM109 [7] [µM] | Minimum inhibitory concentration A. baumannii NM124 [7] [µM] | Minimum inhibitory concentration S. maltophilia B5/5 ([8]; clinical isolate) [µM] | Minimum inhibitory concentration S. maltophilia B6/2 ([8]; clinical isolate) [µM] | Minimum inhibitory concentration S. maltophilia B32/1 ([8]; clinical isolate) [µM] | Minimum inhibitory concentration S. maltophilia B32/4 ([8]; clinical isolate) [µM] | Minimum inhibitory concentration E. coli [9] [µM] | Minimum inhibitory concentration P. aeruginosa [10] [µM] | Minimum inhibitory concentration K. pneumoniae [11] [µM] | Minimum inhibitory concentration S. aureus V4180 [15] [µM] | Minimum inhibitory concentration S. aureus ATCC 25923 [15] [µM] | Minimum inhibitory concentration S. aureus S908 [15] [µM] | Minimum inhibitory concentration S. aureus 127/08 [15] [µM] | further results
C[C@@H](O)[C@H]1C(=O)N2C(C(=O)O)=C(S[C@@H]3CN[C@H](C(=O)N(C)C)C3)[C@H](C)[C@H]12 [meropenem] | > 32 |  |  |  |  |  |  |  |  |  |  |  |  |  |  |  |  |  |  |  | 
CN(C)c1cc(NC(=O)CNC(C)(C)C)c(O)c2c1C[C@H]1C[C@H]3[C@H](N(C)C)C(O)=C(C(N)=O)C(=O)[C@@]3(O)C(O)=C1C2=O [tigecycline] |  | sensitive |  |  |  |  |  |  |  |  |  |  |  |  |  |  |  |  |  |  | 
GIFPIFAKLLGKVIKVASSLISKGRTE [Pseudhymenochirin-2Pa, Pseudhymenochirin-2 Pa] |  |  | 80 | 20 | 20 | 10 | 10 | 10 | 20 | 40 | 20 | 10 | 10 | >80 | >80 | >80 | 10 | 5 | 10 | 5 | CC50 [5]: 11.5 ± 2.6 µM; CC50 at 24 h ([6]; 24 h exposure, non-neoplastic cells, mean ± S.E.M., read-out: LC50 HUVEC): 68 µM; Minimum inhibitory concentration S. maltophilia U8908 ([8]; clinical isolate): 20 µM; CC50 [12]: 6.2 ± 0.6 µM; HC50 at 1 hour [13, 18]: 6.2 ± 1 µM; CC50 [14, 18]: 6 µM; haemolytic activity (in words) ([14]; human erythrocytes): appreciable haemolytic activity; Minimum inhibitory concentration S. aureus 145/08 [15]: 10 µM; Minimum inhibitory concentration S. aureus 274/08 [15]: 10 µM; Minimum inhibitory concentration S. aureus T4/6 [15]: 10 µM; Minimum inhibitory concentration S. epidermidis RP62A [16]: 5 µM; Minimum inhibitory concentration S. epidermidis RP62A/1 [16]: 2.5 µM; Minimum inhibitory concentration S. epidermidis T6/19 [16]: 5 µM; Minimum inhibitory concentration S. epidermidis T37/8 [16]: 10 µM
IKIPSFFRNILKKVGKEAVSLIAGALKQS [Pseudhymenochirin-1Pb] |  |  | 80 | 10 | 10 | 5 | 5 | 5 | 5 | 10 | 5 | 5 | 5 | 10 | 20 | 20 | 5 | 5 | 5 | 5 | CC50 at 24 h ([6]; human): 5.6 ± 0.9 µM; MIC against clinical isolates of A. baumannii (range) [7]: 5 to 10 µM; MIC against clinical isolates of S. maltophilia (range) [8]: 5 to 10 µM; Minimum inhibitory concentration S. maltophilia U8908 [8]: 5 µM; killing of the bacteria, S. aureus [17]: > 99.9%; HC50 at 1 hour [13]: 28 ± 2 µM; haemolytic activity (in words) [14]: high haemolytic activity; less cytotoxic to human erythrocytes as compared to the tumour cells [14]: 3-11 fold; Minimum inhibitory concentration S. aureus 145/08 [15]: 10 µM; Minimum inhibitory concentration S. aureus 274/08 [15]: 5 µM; Minimum inhibitory concentration S. aureus T4/6 [15]: 5 µM; Minimum inhibitory concentration S. epidermidis RP62A [16]: 2.5 µM; Minimum inhibitory concentration S. epidermidis RP62A/1 [16]: 1.25 µM; Minimum inhibitory concentration S. epidermidis T6/19 [16]: 2.5 µM; Minimum inhibitory concentration S. epidermidis T37/8 [16]: 2.5 µM
co-trimoxazole | < 5 |  |  |  |  |  |  |  |  |  |  |  |  |  |  |  |  |  |  |  | 
colistin |  | sensitive |  |  |  |  |  |  |  |  |  |  |  |  |  |  |  |  |  |  | 
